# Source: patent US20190054109A1, “An antiviral composition and a method for application thereof” (ALLA CHEM, LLC, priority 2017, published 2019)
# “Also recorded” adds a separate entry of the source.
# What was measured:
# [1] = Stability in human liver S9 fraction; type: in vitro ADME
# Experimental: Proteins were deposited on ice for 15 min. The samples were then centrifuged for 10 min at 3000 rpm, and the supernatant (150 μl) was sampled for analysis.
# Tolbutamide (Fluka) was used as the internal standard.
# [2] = Pharmacokinetics of triphosphate PSI-7409 in rat liver after peroral administration; type: in vivo, Sprague Dawley rats; conditions: comparison of Cmax and AUC24h in rat liver
# Experimental: The tested composition was administered at a dose of 50 mg/kg. To this end, compositions were prepared with a concentration of prodrug 1.1 or Sovaldi® of 5.0 mg/ml in a 0.5% solution of hydroxypropyl methylcellulose (HPMC), to which 5% ethanol was added, as follows: to a weighed portion of the prodrug of formula 1.1 or Sovaldi®, an appropriate amount of HPMC was added, and the mixture was triturated dry in a mortar, whereafter a proper quantity of 5% ethanol in distilled water was gradually added portionwise, and the mixture was carefully stirred to obtain a suspension suitable for intragastric administration.
# The study was carried out on Sprague Dawley rats. The rats were divided into groups of 6 based on selected time points (1, 2, 4, 6, 8, 10, 12, 16, and 24 h). The rats were weighed, and the volume of compositions comprising the prodrug of formula 1.1 or Sovaldi® was calculated for each animal at a rate of 10 ml/kg. Compositions comprising the prodrug of formula 1.1 or Sovaldi® were administered intragastrically through a feeding tube. […]
# Samples were analyzed using an HPLC-MS/MS technique, wherein the HPLC system Agilent 1290 Infinity II was combined with the AB Sciex QTrap 5500 mass spectrometer. […] PSI-7409 and H027-4261 were recorded in MRM mode with ion transitions of 499/159 and 410/150, respectively. […]
# [3] = system: gT1b NS5B HCV; experiment: Anti-HCV activity in Huh7 cell line stably transfected with an HCV replicon; type: cell-based, hepatitis C virus (HCV) genotype 1b
# Experimental: Evaluation of anti-HCV activity and cytotoxicity for compositions comprising the prodrug of formula 1.1 and Sovaldi®. The antiviral activity of tested compositions comprising the prodrug was evaluated using an Huh7 human hepatocellular carcinoma cell line stably transfected with an HCV replicon. A cell suspension in a complete culture medium (DMEM 1×, Cellgro; cat. #10-013-CV) was transferred into 96-well plates (50 μl per well) with a final density of 7500 cells per well. The serial dilutions of tested prodrugs were prepared from a fresh 200-fold generic solution in DMSO with 11 concentration points and 3-fold dilution for each step starting from 20 nM in a complete medium and were used as 2-fold solutions in two replicates. Minimum 4 hours after planting the cells, 50 μl of serial prodrug dilutions was added to each well. The final prodrug concentration varied from 10 nM to 0.1 pM and that of DMSO, 0.5%. The plate with cells was incubated for 3 days at 37° C. under humidified 5% CO2. Upon completion of incubation, the medium was removed by turning the plate over and shaking it carefully. The cells were fixed for one minute with 100 μl of a 1:1 acetone:methanol solution, washed 3 times with a phosphate buffer (PBS), and blocked for 1 h at room temperature using a 10% fetal bovine serum (FBS) in PBS (150 μl/well). The cells were washed 3 times with PBS and incubated for 2 h at 37° C. with anti-NS5B HCV antibodies (100 μl/well) using Affinity BioReagents (cat. # MA1-080) and diluting the generic solution (1 mg/ml) in a ratio of 1:4000 in 10% FBS-PBS. The cells were washed 3 times with PBS and developed by an OPD solution (100 μl/well) using for each plate one OPD tablet dissolved in a citrate/phosphate buffer (12 ml)), whereto 5 μl of 30% H2O2 was added, for 30 minutes in the dark at room temperature. The reaction was stopped by 2N H2SO4 (100 μl/well), and OD490 was measured using the multifunctional reader Victor^3 V 1420 (Perkin Elmer). The values of EC50 for tested prodrugs were measured from an activity curve plotted using the GraphPad Prizm software.
# [4] = Hepatitis C virus, Huh-7, gT1b HCV replicon in Huh7, 10% FBS
structure (smiles),measurement,setting,value
"C[C@H](N[P@](=O)(OC[C@H]1O[C@@H](n2ccc(=O)[nH]c2=O)[C@](C)(F)[C@@H]1O)Oc1ccccc1)C(=O)OC1CCC1 [Prodrug 1.1, cyclobutyl (S)-2-{(S)-[(2R,3R,4R,5R)-5-(3,4-dihydro-2,4-dioxo-2H-pyrimidin-1-yl)-3-hydroxy-4-methyl-4-fluoro-tetrahydro-furan-2-ylmethoxy]-phenoxy-phosphorylamino}-propanoate]",half-life at 1 μM,"[1]; pH 7.4, human liver S9 fraction 1 mg/ml protein, 37° C., 1 μM, read-out: T1/2 Human S9 (converted)",3 min
same,metabolic rate in human liver microsomal S9 fraction relative to Sovaldi (faster),[1]; ratio of T1/2 in human S9,11 times
same,effectiveness of liver metabolism into triphosphate PSI-7409 relative to Sovaldi,[2],almost twice more effective; also recorded: almost two times more effectively
same,EC50,[3]; [4],15 to 27 nM
same,EC90,[3]; [4],128 nM
same,activity against gT1b HCV relative to Sovaldi,[3]; comparison of EC50/EC90,more than three times more active
